In one data set the test system is unmodified GL26 cells. Put plainly: GL26 drug cytotoxicity screens. Format: cell-based, murine. Conditions: drug 125-1000 μM, read-out: EC50 (concentrations giving 50% killing). How it is done:
GL26 drug cytotoxicity (EC50, concentrations giving 50% killing) screens were performed with the results depicted in Table 2.

The subject of another data set is HT-29 human colon cancer. Put plainly: WST-1 cytotoxic screening, HT-29 Colon Cancer. The note with it: for pEC50: read-out: Effective concentration for 50% cell death (EC50). How it is done: (§1) Thus, the inventors examined the in vitro effect of several ATP-dependent potassium channel agonists on cell viability in a wide range of tumor and normal cells.
(§2) Table 1 depicts the in vitro effect of KATP channel agonists on cell viability in a range of tumor and normal cells. The cytotoxic screening assay (WST-1 assay; Roche Diagnostics) results shown are the effective KATP channel agonist concentration (μM) required for 50% cell death (EC50) after exposure to the same for 24 hours. Indicated percentages are the percent viable cells remaining after treatment with 1000 μM of KATP channel agonists.
In general terms: Formazan colour is commonly taken as a measure of viable cells.

The test system of another data set is CRL5904 NSC Lung Cancer. Put plainly: WST-1 cytotoxic screening, CRL5904 NSC Lung Cancer. The note with it: for pEC50: read-out: Effective concentration for 50% cell death (EC50); for viability at 1000 µM: read-out: percentage of viable cells remaining. The procedure:
as §1, §2

For another data set, the system named is RG2 Glioma. Description: WST-1 cytotoxic screening, RG2 Glioma. Conditions: for pEC50: read-out: Effective concentration for 50% cell death (EC50). How it is done: as §1, §2
Another data set has as its system HBMVEC Endothelial. Description: WST-1 cytotoxic screening, HBMVEC Endothelial. Conditions: read-out: Effective concentration for 50% cell death (EC50). The procedure: as §1, §2
In another data set the test system is U87 human glioma. Description: WST-1 cytotoxic screening, U87 Glioma. The note with it: for pEC50: read-out: Effective concentration for 50% cell death (EC50). The procedure: as §1, §2
The next data set deals with MDA-231 Breast Cancer. Put plainly: WST-1 cytotoxic screening, MDA-231 Breast Cancer. It counts as cell-based. Conditions: read-out: Effective concentration for 50% cell death (EC50). How it is done:
as §1, §2

The subject of a further data set is GL-26 Glioma. Description: cells. The note with it: read-out: Effective concentration for 50% cell death (EC50). How it is done:
as §1, §2

The next data set concerns GL26 glioma. Put plainly: Survival of mice with intracranial GL26 glioma. Format: in vivo. Conditions: for survival, C57BL/6 (WT) relative to nu/nu mice: 2.7 mg/kg days 7-9 after GL26 implantation, log-rank; for survival: 2.7 mg/kg i.v. days 7-9 after intracranial GL26 implantation, 2.7 mg/kg. How it is done:
FIG. 1 depicts T cell-induced chemosensitization of murine glioma in accordance with an embodiment of the present invention. Fifty thousand (50,000) GL26 tumor cells in […] 1% methylcellulose were implanted i.c. into anesthetized female C57BL/6J (black lines) or nu/nu (gray lines) mice aged 6-8 weeks using a stereotactic rodent frame. Injection was 1 mm posterior and 2.5 mm lateral to the junction of the coronal and saggital sutures (bregma), at a depth of 2 mm. Vaccinated mice received 2, subcutaneous injections of 2×106 tumor lysate-pulsed, irradiated cultured DC2.4 dendritic cells in […] sterile PBS as vaccine on day 3 and 7 post tumor implantation, and a chemotherapeutic drug (dosage: 2.7 mg/kg minoxidil sulfate) was administered on days 7, 8, and 9 post tumor implantation. […] Survival differences were assessed by log-rank statistics.
FIGS. 2a and 2b depicts survival rates of mice treated with minxodil sulfate in accordance with an embodiment of the present invention. Survival of Nude (nu; gray) and C57BL/6 (WT) mice with (solid black) or without (dotted black) vaccination, treated 7-9 days after intracranial GL26 glioma implantation with vehicle (DMSO) or minoxidil sulfate (MS, 2.7 mg/kg in 50 μl, i.v.). Vaccinated mice were injected subcutaneously with […] tumor lysate-pulsed syngeneic DC2.4 dendritic cells 3 and 7 days after GL26 implantation.
GL26 glioma cells were implanted intracranially into T cell-deficient (nude) or syngeneic wild-type (C57BI/6) mice, which were treated with a chemotherapeutic drug alone or with vaccination using GL26 lysate-pulsed DC2.4 dendritic cells. […] (FIG. 1).
Chemosensitivity was modeled by growth of the GL26 glioma in syngeneic C57BL/6 (B6), vaccinated B6, and T cell-deficient nude mice. Tumor implantation was followed by chemotherapeutic drug treatment and/or DC vaccination.

Data set [1] can be described thus: WST-1 cytotoxic screening, HBMVEC Endothelial. The note with it: human, HBMVEC endothelial cells (non-cancer). The procedure: as §1, §2
Another data set deals with C6 rat glioma. Put plainly: WST-1 cytotoxic screening, C6 Glioma. The note with it: for pEC50: 24 h, read-out: Effective concentration for 50% cell death (EC50). The procedure:
as §1, §2

In the next data set the test system is 9L Glioma. Description: WST-1 cytotoxic screening, 9L Glioma. Format: cell-based. Conditions: for pEC50: treatment for 24 hours, read-out: Effective concentration for 50% cell death (EC50). The procedure: as §1, §2
The next data set has as its system DNTC-1 Astrocytes. Put plainly: WST-1 cytotoxic screening, DNTC-1 Astrocytes. It counts as cell-based. The note with it: Astrocyte, treatment for 24 hours, read-out: Effective concentration for 50% cell death (EC50). How it is done:
as §1, §2

[2] abbreviates: Homo sapiens, MDA-MB-231, treatment for 24 hours.

Structures are written as SMILES. pEC50: −log10 of the molar value. Counter-ions that a name gives are not always drawn. Like-named read-outs stand apart in the source and are kept apart here.

Turning to `COc1cccc2c1C(=O)c1c(O)c3c(c(O)c1C2=O)C[C@@](O)(C(=O)CO)C[C@@H]3O[C@H]1C[C@H](N)[C@H](O)[C@H](C)O1` [Adriamycin], the pEC50 with unmodified GL26 cells (Mus musculus) was over 3.90.

As for `N.N.O=C([O-])C1(C(=O)[O-])CCC1.[Pt+2]` [Carboplatin], the pEC50 in the data set with unmodified GL26 cells is 3.51.

As to `CC1(C)Oc2ccc(S(=O)(=O)Nc3ccccc3)cc2[C@@H](N2CCCCC2=O)[C@@H]1O` [KCO912], the pEC50 in the data set on HT-29 human colon cancer (HT-29 Colon Cancer, treatment for 24 hours) is under 3.00; in the data set with CRL5904 NSC Lung Cancer (CRL5904 NSC Lung Cancer, treatment for 24 hours), under 3.00; with RG2 Glioma (RG2 Glioma, treatment for 24 hours), under 3.00; with HBMVEC Endothelial (HBMVEC Endothelial, treatment for 24 hours), under 3.00; in the data set with U87 human glioma (U87 Glioma, treatment for 24 hours), under 3.00; in the data set with MDA-231 Breast Cancer (treatment for 24 hours), 3.90. The pEC50 with GL-26 Glioma (GL-26 Glioma, treatment for 24 hours) is under 3.00.

Regarding `CN(Cc1cnc2nc(N)nc(N)c2n1)c1ccc(C(=O)N[C@@H](CCC(=O)O)C(=O)O)cc1` [Methotrexate], the pEC50 with unmodified GL26 cells (Mus musculus) is under 3.00.

As for `Nc1cc(N2CCCCC2)nc(N)[n+]1OS(=O)(=O)[O-]` [Minoxidil Sulfate, minoxidil sulfate], the “survival, C57BL/6 (WT) relative to nu/nu mice” value is on record as “increased survival” in the data set with GL26 glioma and “significantly increased” in the data set on GL26 glioma (listed as MS). Further, the survival entry in the data set on GL26 glioma (T cell-deficient nude (nu/nu) hosts) is recorded as “not in nude hosts”; in the data set on GL26 glioma (T cell-deficient nude (nu/nu) hosts, listed as MS), “increased survival only in WT hosts”; with GL26 glioma (wild-type C57BL/6 hosts, with or without DC vaccination), “prolonged survival in B6”; in the data set on GL26 glioma (wild-type C57BL/6 hosts, with or without DC vaccination, listed as MS) it was “increased survival”; with GL26 glioma (wild-type C57BL/6 hosts, with or without DC vaccination, listed as Minoxidil sulfate), “enhanced survival”. The “effectiveness as a cytotoxic agent” value with HT-29 human colon cancer (HT-29 human colon cancer, WST-1 assay) was “highly effective”; in the data set on U87 human glioma (U87 human glioma, WST-1 assay), “highly effective”; with C6 rat glioma (C6 rat glioma, WST-1 assay), “highly effective”. Further, the pEC50 with HT-29 human colon cancer (Homo sapiens, HT-29, 24 h) was 3.44; in the data set with unmodified GL26 cells (Mus musculus), 3.23; with CRL5904 NSC Lung Cancer (24 h) it was under 3.00; in the data set on RG2 Glioma (Rattus norvegicus, RG2, 24 h) it was 3.09; in the data set on HBMVEC Endothelial (24 h), under 3.00; in the data set with U87 human glioma (Homo sapiens, U-87 MG, 24 h) it was 3.51. In addition, the pEC50 is 3.89 in the data set with C6 rat glioma (Rattus norvegicus, C6 glioma); 3.03 in the data set with MDA-231 Breast Cancer (setting [2]); 3.23 in the data set with GL-26 Glioma (Mus musculus, GL26, 24 h); under 3.00 in the data set on 9L Glioma; 3.96 in the data set on DNTC-1 Astrocytes. Besides, the viability at 1000 µM with CRL5904 NSC Lung Cancer stood at 89%; in the data set with 9L Glioma (after treatment with 1000 μM, read-out: percentage of viable cells remaining) it was 51%. The viability at 24 h, 1000 μM in data set [1] stood at 84%.

In the case of `CC(N/C(=N\C#N)Nc1ccncc1)C(C)(C)C` (stereo not drawn) [Pinacidil, pinacidil], the pEC50 was under 3.00 with HT-29 human colon cancer (Homo sapiens, HT-29, 24 h); 3.68 with unmodified GL26 cells (Mus musculus); under 3.00 with CRL5904 NSC Lung Cancer (24 h); under 3.00 in the data set with RG2 Glioma (Rattus norvegicus, RG2, 24 h); under 3.00 in the data set on HBMVEC Endothelial (24 h); under 3.00 in the data set on U87 human glioma (Homo sapiens, U-87 MG, 24 h). The pEC50 was under 3.00 in the data set with C6 rat glioma (Rattus norvegicus, C6 glioma); 3.66 in the data set on MDA-231 Breast Cancer (setting [2]); 3.68 in the data set with GL-26 Glioma (Mus musculus, GL26, 24 h); 3.10 in the data set with 9L Glioma. The viability at 1000 µM was determined as 74% with HT-29 human colon cancer (Homo sapiens, HT-29, read-out: percentage of viable cells remaining); 79.5% in the data set on CRL5904 NSC Lung Cancer; 69% in the data set with RG2 Glioma (Rattus norvegicus, RG2, read-out: percentage of viable cells remaining); 77% with U87 human glioma (Homo sapiens, U-87 MG, read-out: percentage of viable cells remaining); 93% in the data set on C6 rat glioma (Rattus norvegicus, C6 glioma, read-out: percentage of viable cells remaining). For the same molecule, the viability at 24 h, 1000 μM in data set [1] was 106%.

In the case of `Cn1nnc2c(C(N)=O)ncn2c1=O` [Temodar], the pEC50 with unmodified GL26 cells (Mus musculus) is under 3.00.

The values above are taken from US7705010B2, “Use of minoxidil sulfate as an anti-tumor drug” (Cedars-Sinai Medical Center, priority 2005, dated 2010).
